{"source": "patent US20260262643A1", "about": "“HERBICIDAL BENZOXAZINES” (FMC CORPORATION, priority 2022, published 2026)", "key": {"[1]": {"test_system": "barnyardgrass", "assay": "Test C preemergence", "format": "in vivo, Echinochloa crusgalli", "in_short": "(§1)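 Visual injury score, 0–100 (100 = complete control), taken 10 days after treatment relative to untreated controls. Pre: directed spray onto soil over sown seeds. Post: foliar spray at one- to two-leaf stage, 2–10 cm. Solvent/surfactant formulation; loam–sand soil; greenhouse.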"}, "[2]": {"test_system": "blackgrass", "assay": "Test C preemergence", "format": "in vivo, Alopecurus myosuroides", "in_short": "as §1"}, "[3]": {"test_system": "corn", "assay": "Test C preemergence", "format": "in vivo, Zea mays", "in_short": "as §1"}, "[4]": {"test_system": "foxtail, giant", "assay": "Test C preemergence", "format": "in vivo, Setaria faberi", "description": "(§2) Seeds of plant species selected from barnyardgrass (Echinochloa crusgalli), blackgrass (Alopecurus myosuroides), corn (Zea mays), foxtail, giant (giant foxtail, Setaria faberi), green foxtail (Setaria viridis), goosegrass (Eleusine indica), kochia (Bassia scoparia), oat, wild (wild oat, Avena fatua), pigweed, palmer (palmer amaranth, palmer pigweed, Amaranthus palmeri), Pigweed, Redroot (redroot pigweed, Amaranthus retroflexus), ragweed (common ragweed, Ambrosia artemisiifolia), ryegrass, Italian ([…] ryegrass, Lolium multiflorum), soybean (Glycine max), and wheat (Triticum aestivum) were planted into a blend of loam soil and sand and treated preemergence with a directed soil spray using test chemicals formulated in a non-phytotoxic solvent mixture which included a surfactant. At the same time, plants selected from these crops and weed species and also galium (catchweed bedstraw, Galium aparine) and horseweed (Erigeron canadensis) were planted in pots containing the same blend of loam soil and sand and treated with postemergence applications of test chemicals formulated in the same manner. Plants ranged in height from 2 to 10 cm and were in the one- to two-leaf stage for the postemergence treatment. Treated plants and untreated controls were maintained in a greenhouse for 10 days, after which time all treated plants were compared to untreated controls and visually evaluated for injury. Plant response ratings, summarized in Table C, are based on a 0 to 100 scale where 0 is no effect and 100 is complete control. A dash (-) response means no test result."}, "[5]": {"test_system": "kochia", "assay": "Test C preemergence", "format": "in vivo, Bassia scoparia", "in_short": "as §1"}, "[6]": {"test_system": "oat, wild", "assay": "Test C preemergence", "format": "in vivo, Avena fatua", "in_short": "as §1"}, "[7]": {"test_system": "pigweed, palmer", "assay": "Test C preemergence", "format": "in vivo, Amaranthus palmeri", "in_short": "as §1"}, "[8]": {"test_system": "ragweed", "assay": "Test C preemergence", "format": "in vivo, Ambrosia artemisiifolia", "in_short": "as §1"}, "[9]": {"test_system": "ryegrass, Italian", "assay": "Test C preemergence", "format": "in vivo, Lolium multiflorum", "in_short": "as §1"}, "[10]": {"test_system": "soybean", "assay": "Test C preemergence", "format": "in vivo, Glycine max", "in_short": "as §1"}, "[11]": {"test_system": "wheat", "assay": "Test C preemergence", "format": "in vivo, Triticum aestivum", "in_short": "as §1"}, "[12]": {"test_system": "barnyardgrass", "assay": "Test C postemergence", "format": "in vivo, Echinochloa crusgalli", "conditions": "10 days, 0 to 100 scale (0 no effect, 100 complete control)", "in_short": "as §1"}, "[13]": {"test_system": "blackgrass", "assay": "Test C postemergence", "format": "in vivo, Alopecurus myosuroides", "conditions": "10 days, 0 to 100 scale (0 no effect, 100 complete control)", "in_short": "as §1"}, "[14]": {"test_system": "corn", "assay": "Test C postemergence", "format": "in vivo, Zea mays", "conditions": "10 days, 0 to 100 scale (0 no effect, 100 complete control)", "in_short": "as §1"}, "[15]": {"test_system": "foxtail, giant", "assay": "Test C postemergence", "format": "in vivo, Setaria faberi", "conditions": "10 days, 0 to 100 scale (0 no effect, 100 complete control)", "description": "as §2"}, "[16]": {"test_system": "kochia", "assay": "Test C postemergence", "format": "in vivo, Bassia scoparia", "conditions": "10 days, 0 to 100 scale (0 no effect, 100 complete control)", "in_short": "as §1"}, "[17]": {"test_system": "oat, wild", "assay": "Test C postemergence", "format": "in vivo, Avena fatua", "conditions": "10 days, 0 to 100 scale (0 no effect, 100 complete control)", "in_short": "as §1"}, "[18]": {"test_system": "pigweed, palmer", "assay": "Test C postemergence", "format": "in vivo, Amaranthus palmeri", "conditions": "10 days, 0 to 100 scale (0 no effect, 100 complete control)", "in_short": "as §1"}, "[19]": {"test_system": "ragweed", "assay": "Test C postemergence", "format": "in vivo, Ambrosia artemisiifolia", "conditions": "10 days, 0 to 100 scale (0 no effect, 100 complete control)", "in_short": "as §1"}, "[20]": {"test_system": "ryegrass, Italian", "assay": "Test C postemergence", "format": "in vivo, Lolium multiflorum", "conditions": "10 days, 0 to 100 scale (0 no effect, 100 complete control)", "in_short": "as §1"}, "[21]": {"test_system": "soybean", "assay": "Test C postemergence", "format": "in vivo, Glycine max", "conditions": "10 days, 0 to 100 scale (0 no effect, 100 complete control)", "in_short": "as §1"}, "[22]": {"test_system": "wheat", "assay": "Test C postemergence", "format": "in vivo, Triticum aestivum", "conditions": "10 days, 0 to 100 scale (0 no effect, 100 complete control)", "in_short": "as §1"}, "[23]": {"test_system": "galium", "assay": "Test C postemergence", "format": "in vivo, Galium aparine", "conditions": "10 days, 0 to 100 scale (0 no effect, 100 complete control)", "in_short": "as §1"}, "[24]": {"test_system": "horseweed", "assay": "Test C postemergence", "format": "in vivo, Erigeron canadensis", "conditions": "10 days, 0 to 100 scale (0 no effect, 100 complete control)", "in_short": "as §1"}, "[25]": {"test_system": "barnyardgrass", "assay": "Test D flooded paddy test", "format": "in vivo, Echinochloa crus-galli", "conditions": "250 g ai/ha, applied to paddy water, visual rating after 13 to 14 days, scale 0 to 100 (0 no effect, 100 complete control)", "in_short": "(§3)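 Visual ratings from 0, meaning no effect, to 100, meaning complete control, were assigned against untreated controls 13 to 14 days after compounds were added to the floodwater of pots kept 3 cm deep, with plants at the 2-leaf stage.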"}, "[26]": {"test_system": "ducksalad", "assay": "Test D flooded paddy test", "format": "in vivo, Heteranthera limosa", "conditions": "250 g ai/ha, applied to paddy water, visual rating after 13 to 14 days, scale 0 to 100 (0 no effect, 100 complete control)", "in_short": "as §3"}, "[27]": {"test_system": "rice", "assay": "Test D flooded paddy test", "format": "in vivo, Oryza sativa", "conditions": "250 g ai/ha, applied to paddy water, visual rating after 13 to 14 days, scale 0 to 100 (0 no effect, 100 complete control)", "in_short": "as §3"}, "[28]": {"test_system": "sedge, umbrella", "assay": "Test D flooded paddy test", "format": "in vivo, Cyperus difformis", "conditions": "250 g ai/ha, applied to paddy water, visual rating after 13 to 14 days, scale 0 to 100 (0 no effect, 100 complete control)", "in_short": "as §3"}, "[29]": {"conditions": "500 g ai/ha, preemergence, 0 to 100 scale (0 no effect, 100 complete control)"}, "[30]": {"conditions": "Preemergence, 125 g ai/ha, 0 to 100 scale, 0 no effect, 100 complete control"}}}
{"smiles": "Cc1cccc2c1OC(C(F)(F)F)CN2C(=O)c1ccnc(-n2cnc(C(C)C)n2)c1", "note": "(single isomer, unassigned) [Compound 320]", "values": [{"measurement": "Barnyardgrass plant response rating", "setting": "[1]; [29]", "value": 80}, {"measurement": "Plant response rating, Barnyardgrass", "setting": "[1]; [30]", "value": 30}, {"measurement": "Blackgrass plant response rating", "setting": "[2]; [29]", "value": 60}, {"measurement": "Plant response rating, Blackgrass", "setting": "[2]; [30]", "value": 0}, {"measurement": "Corn plant response rating", "setting": "[3]; [29]", "value": 30}, {"measurement": "Plant response rating, Corn", "setting": "[3]; [30]", "value": 30}, {"measurement": "Foxtail, Giant plant response rating", "setting": "[4]; [29]", "value": 90}, {"measurement": "Plant response rating, Foxtail, Giant", "setting": "[4]; [30]", "value": 20}, {"measurement": "Kochia plant response rating", "setting": "[5]; [29]", "value": 10}, {"measurement": "Plant response rating, Kochia", "setting": "[5]; [30]", "value": 10}, {"measurement": "Oat, Wild plant response rating", "setting": "[6]; [29]", "value": 40}, {"measurement": "Plant response rating, Oat, Wild", "setting": "[6]; [30]", "value": 10}, {"measurement": "Pigweed, Palmer plant response rating", "setting": "[7]; [29]", "value": 100}, {"measurement": "Plant response rating, Pigweed, Palmer", "setting": "[7]; [30]", "value": 20}, {"measurement": "Ragweed plant response rating", "setting": "[8]; [29]", "value": 0}, {"measurement": "Plant response rating, Ragweed", "setting": "[8]; [30]", "value": 0}, {"measurement": "Ryegrass, Italian plant response rating", "setting": "[9]; [29]", "value": 90}, {"measurement": "Plant response rating, Ryegrass, Italian", "setting": "[9]; [30]", "value": 80}, {"measurement": "Soybean plant response rating", "setting": "[10]; [29]", "value": 100}, {"measurement": "Plant response rating, Soybean", "setting": "[10]; [30]", "value": 10}, {"measurement": "Wheat plant response rating", "setting": "[11]; [29]", "value": 90}, {"measurement": "Plant response rating, Wheat", "setting": "[11]; [30]", "value": 20}, {"measurement": "Plant response rating, Barnyardgrass", "setting": "[12]; 500 g ai/ha, postemergence", "value": 20}, {"measurement": "Plant response rating, Barnyardgrass", "setting": "[12]; Postemergence, 125 g ai/ha", "value": 0}, {"measurement": "Plant response rating, Blackgrass", "setting": "[13]; 500 g ai/ha, postemergence", "value": 10}, {"measurement": "Plant response rating, Blackgrass", "setting": "[13]; Postemergence, 125 g ai/ha", "value": 0}, {"measurement": "Plant response rating, Corn", "setting": "[14]; 500 g ai/ha, postemergence", "value": 40}, {"measurement": "Plant response rating, Corn", "setting": "[14]; Postemergence, 125 g ai/ha", "value": 10}, {"measurement": "Plant response rating, Foxtail, Giant", "setting": "[15]; 500 g ai/ha, postemergence", "value": 40}, {"measurement": "Plant response rating, Foxtail, Giant", "setting": "[15]; Postemergence, 125 g ai/ha", "value": 20}, {"measurement": "Plant response rating, Kochia", "setting": "[16]; 500 g ai/ha, postemergence", "value": 80}, {"measurement": "Plant response rating, Kochia", "setting": "[16]; Postemergence, 125 g ai/ha", "value": 40}, {"measurement": "Plant response rating, Oat, Wild", "setting": "[17]; 500 g ai/ha, postemergence", "value": 10}, {"measurement": "Plant response rating, Oat, Wild", "setting": "[17]; Postemergence, 125 g ai/ha", "value": 10}, {"measurement": "Plant response rating, Pigweed, Palmer", "setting": "[18]; 500 g ai/ha, postemergence", "value": 50}, {"measurement": "Plant response rating, Pigweed, Palmer", "setting": "[18]; Postemergence, 125 g ai/ha", "value": 0}, {"measurement": "Plant response rating, Ragweed", "setting": "[19]; 500 g ai/ha, postemergence", "value": 50}, {"measurement": "Plant response rating, Ragweed", "setting": "[19]; Postemergence, 125 g ai/ha", "value": 0}, {"measurement": "Plant response rating, Ryegrass, Italian", "setting": "[20]; 500 g ai/ha, postemergence", "value": 30}, {"measurement": "Plant response rating, Ryegrass, Italian", "setting": "[20]; Postemergence, 125 g ai/ha", "value": 20}, {"measurement": "Plant response rating, Soybean", "setting": "[21]; 500 g ai/ha, postemergence", "value": 100}, {"measurement": "Plant response rating, Soybean", "setting": "[21]; Postemergence, 125 g ai/ha", "value": 50}, {"measurement": "Plant response rating, Wheat", "setting": "[22]; 500 g ai/ha, postemergence", "value": 30}, {"measurement": "Plant response rating, Wheat", "setting": "[22]; Postemergence, 125 g ai/ha", "value": 10}, {"measurement": "Plant response rating, Galium", "setting": "[23]; 500 g ai/ha, postemergence", "value": 70}, {"measurement": "Plant response rating, Galium", "setting": "[23]; Postemergence, 125 g ai/ha", "value": 50}, {"measurement": "Plant response rating, Horseweed", "setting": "[24]; 500 g ai/ha, postemergence", "value": 40}, {"measurement": "Plant response rating, Horseweed", "setting": "[24]; Postemergence, 125 g ai/ha", "value": 10}, {"measurement": "Plant response rating, Barnyardgrass (Flood)", "setting": "[25]", "value": 0}, {"measurement": "Plant response rating, Ducksalad (Flood)", "setting": "[26]", "value": 0}, {"measurement": "Plant response rating, Rice (Flood)", "setting": "[27]", "value": 0}, {"measurement": "Plant response rating, Sedge, Umbrella (Flood)", "setting": "[28]", "value": 0}]}
